*1 amine or outer side, *2 acyl side, *3 side chain or, on linkers, in order; H or OH if unused. Where a SMILES comes first, the peptide text is derived from it. [ ]: non-standard residue; d: D form. X1 = Cc1cc(O)cc(C)c1[C@H](C)[C@@H](N[*:1])C(=O)[*:2]; X3 = Cc1cc(O)cc(C)c1[C@@H](C)[C@H](N[*:1])C(=O)[*:2]; Pen = CC(C)(S)[C@H](N)C(=O)O
How the values were obtained:
[1] = molecular target: T1, Mu-type opioid receptor (Homo sapiens, UniProt P35372); test: (§1) Binding affinity towards Opioid receptor mu 1 using [3H]- CTOP as radioligand
[2] = molecular target: Mu-type opioid receptor (Cavia porcellus) (UniProt P97266); test: In vitro bioassay data to determine the effective concentration required for antagonistic activity against Opioid receptor mu 1 in functional assay, GPI at a concentration of 82 uM; parameters: scale not given: the % may be the effect or the level left
[3] = molecular target: T1, Mu-type opioid receptor; test: as §1; remark: listed apart in the source
[4] = system: Anolis carolinensis; test: Biological activity using the lizard skin (Anolis carolinensis) assay. The value indicates no prolonged biological activity; format: functional, organism-based
[5] = Biological activity using the frog skin (Rana pipiens) assay. The value indicates no prolonged biological activity; format: functional
[6] = molecular target: T2, Oxytocin receptor (Homo sapiens, UniProt P30559); test: Binding affinity towards oxytocin receptor
T2 sequence (P30559 whole entry): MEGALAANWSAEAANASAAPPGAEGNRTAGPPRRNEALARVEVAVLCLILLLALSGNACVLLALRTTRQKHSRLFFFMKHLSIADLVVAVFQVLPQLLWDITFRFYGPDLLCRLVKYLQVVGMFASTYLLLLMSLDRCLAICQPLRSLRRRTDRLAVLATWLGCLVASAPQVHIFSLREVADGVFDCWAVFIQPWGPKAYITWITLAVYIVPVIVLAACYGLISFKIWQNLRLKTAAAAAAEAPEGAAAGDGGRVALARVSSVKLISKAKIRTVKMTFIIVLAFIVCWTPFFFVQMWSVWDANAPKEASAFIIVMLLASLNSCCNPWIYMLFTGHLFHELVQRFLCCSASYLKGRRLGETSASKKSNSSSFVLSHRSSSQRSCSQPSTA

[7] = molecular target: Delta-type opioid receptor (Rattus norvegicus, UniProt P33533); test: Binding affinity towards Opioid receptor delta 1 using [3H]- [p-CIPhe4] DPDPE as radioligand
[8] = molecular target: Delta-type opioid receptor (Mus musculus, UniProt P32300); test: In vitro bioassay data to determine the effective concentration required for antagonistic activity against Opioid receptor delta 1 in functional assay, MVD
[9] = molecular target: Mu-type opioid receptor (Cavia porcellus, UniProt P97266); test: In vitro bioassay data to determine the effective concentration required for antagonistic activity against Opioid receptor mu 1 in functional assay, GPI
[10] = molecular target: Mu-type opioid receptor (Cavia porcellus) (UniProt P97266); test: In vitro bioassay data to determine the effective concentration required for antagonistic activity against Opioid receptor mu 1 in functional assay, GPI at a concentration of 60 uM; parameters: scale not given: the % may be the effect or the level left

T1 sequence (P35372 whole entry): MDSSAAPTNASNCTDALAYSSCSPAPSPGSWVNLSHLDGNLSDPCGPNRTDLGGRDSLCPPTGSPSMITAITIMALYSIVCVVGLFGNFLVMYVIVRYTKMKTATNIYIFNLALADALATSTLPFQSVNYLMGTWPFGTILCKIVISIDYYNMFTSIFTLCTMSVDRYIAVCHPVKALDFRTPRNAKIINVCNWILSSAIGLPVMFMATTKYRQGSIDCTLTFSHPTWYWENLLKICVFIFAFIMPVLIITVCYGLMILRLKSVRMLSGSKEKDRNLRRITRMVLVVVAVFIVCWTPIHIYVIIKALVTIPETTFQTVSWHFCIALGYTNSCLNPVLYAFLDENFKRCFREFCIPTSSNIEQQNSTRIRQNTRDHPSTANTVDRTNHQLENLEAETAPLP
Delta-type opioid receptor (Rattus norvegicus, UniProt P33533), sequence (P33533 whole entry): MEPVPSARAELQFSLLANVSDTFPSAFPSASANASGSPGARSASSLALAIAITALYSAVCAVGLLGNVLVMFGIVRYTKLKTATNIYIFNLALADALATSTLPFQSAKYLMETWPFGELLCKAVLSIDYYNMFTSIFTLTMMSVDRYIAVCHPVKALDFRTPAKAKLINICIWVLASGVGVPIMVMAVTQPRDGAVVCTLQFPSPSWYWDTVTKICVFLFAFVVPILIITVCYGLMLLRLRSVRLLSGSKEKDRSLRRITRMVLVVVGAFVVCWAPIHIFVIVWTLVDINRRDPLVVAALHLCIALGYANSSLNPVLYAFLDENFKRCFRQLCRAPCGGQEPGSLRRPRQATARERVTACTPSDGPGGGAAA
Mu-type opioid receptor (Cavia porcellus), sequence (P97266 whole entry): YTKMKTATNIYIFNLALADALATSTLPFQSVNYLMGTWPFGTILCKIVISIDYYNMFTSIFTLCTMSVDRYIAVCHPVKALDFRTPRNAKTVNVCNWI
Delta-type opioid receptor (Mus musculus, UniProt P32300), sequence (P32300 whole entry): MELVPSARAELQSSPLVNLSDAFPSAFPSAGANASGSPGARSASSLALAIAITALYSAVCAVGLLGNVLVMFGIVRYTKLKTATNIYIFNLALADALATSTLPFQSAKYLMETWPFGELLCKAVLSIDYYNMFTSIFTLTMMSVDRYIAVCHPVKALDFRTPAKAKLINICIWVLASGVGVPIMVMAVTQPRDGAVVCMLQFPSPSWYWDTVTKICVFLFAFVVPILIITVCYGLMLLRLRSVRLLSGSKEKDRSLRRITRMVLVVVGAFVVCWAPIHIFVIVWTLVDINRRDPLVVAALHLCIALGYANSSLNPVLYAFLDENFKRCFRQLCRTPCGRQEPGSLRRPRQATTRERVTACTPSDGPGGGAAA
Mu-type opioid receptor (Cavia porcellus, UniProt P97266), sequence (P97266 whole entry): as the sequence (P97266 whole entry) above

Compound `Cc1cc(O)cc(C)c1[C@@H](C)[C@H](N)C(=O)N[C@H]1C(=O)NCC(=O)N[C@@H](Cc2ccccc2)C(=O)N[C@@H](C(=O)O)C(C)(C)SSC1(C)C` has an IC50 [1] of 4300 nM.
Work on `Cc1cc(O)cc(C)c1[C@H](C)[C@@H](N)C(=O)N[C@H](C(=O)NCC(=O)N[C@@H](Cc1ccccc1)C(=O)N[C@H](C(=O)O)C(C)(C)S)C(C)(C)S` (H-[X1][Pen]GF[Pen]-OH) yielded an Activity [2] of 75% and an Activity [3] of 0%.
In the case of `CCCC[C@H](NC(C)=O)C(=O)N[C@H]1CC(=O)NCCCC[C@@H](C(N)=O)NC(=O)[C@H]([C@H](C)c2c[nH]c3ccccc23)NC(=O)[C@H](CCCN=C(N)N)NC(=O)[C@@H](Cc2ccccc2)NC(=O)[C@H](Cc2c[nH]cn2)NC1=O`, the EC50 [4] is reported as 6.7 nM and the EC50 [5] is reported as 29 nM.
Compound `CCCC[C@H](NC(C)=O)C(=O)N[C@H]1CC(=O)NCCC[C@@H](C(N)=O)NC(=O)[C@H](Cc2c[nH]c3ccccc23)NC(=O)[C@H](CCCN=C(N)N)NC(=O)[C@@H](Cc2ccccc2)NC(=O)[C@H](Cc2c[nH]cn2)NC1=O` has an EC50 [4] of 0.05 nM and an EC50 [5] of 0.5 nM.
Compound `CC[C@H](C)[C@@H]1NC(=O)[C@H](Cc2ccc(O)cc2)NC(=O)[C@H](N)C(C)(C)SSC[C@@H]2NC(=O)[C@H](CC(N)=O)NC(=O)[C@H](CCC(=O)NCCCC[C@@H](C(=O)NCC(N)=O)NC(=O)[C@@H]3CCCN3C2=O)NC1=O` has an IC50 [6] of 130 nM.
With `CC[C@H](C)[C@@H]1NC(=O)[C@H]([C@H](C)c2c(C)cc(OC)cc2C)NC(=O)[C@H](N)C(C)(C)SSC[C@@H]2NC(=O)[C@@H](CC(N)=O)NC(=O)[C@@H](CCC(=O)NCCCC[C@H](C(=O)NCC(N)=O)NC(=O)[C@H]3CCCN3C2=O)NC1=O` the IC50 [6] was 19000 nM.
Compound `CCCC[C@H](NC(C)=O)C(=O)N[C@H]1CC(=O)NCC[C@@H](C(N)=O)NC(=O)[C@H](Cc2c[nH]c3ccccc23)NC(=O)[C@H](CCCN=C(N)N)NC(=O)[C@@H](Cc2ccccc2)NC(=O)[C@H](Cc2c[nH]cn2)NC1=O` has an EC50 [4] of 0.2 nM and an EC50 [5] of 0.5 nM.
Work on `Cc1cc(O)cc(C)c1[C@@H](C)[C@@H](N)C(=O)N[C@H]1C(=O)NCC(=O)N[C@@H](Cc2ccccc2)C(=O)N[C@@H](C(=O)O)C(C)(C)SSC1(C)C` yielded an IC50 [7] of 3500 nM, an IC50 [1] of 77000 nM and an EC50 [8] of 2200 nM. The EC50 [9] was 50000 nM.
Compound `CCCC[C@H](NC(C)=O)C(=O)N[C@H]1CC(=O)NC[C@@H](C(N)=O)NC(=O)[C@H](Cc2c[nH]c3ccccc23)NC(=O)[C@H](CCCN=C(N)N)NC(=O)[C@@H](Cc2ccccc2)NC(=O)[C@H](Cc2c[nH]cn2)NC1=O` has an EC50 [4] of 0.2 nM and an EC50 [5] of 50 nM.
Compound `CC[C@H](C)[C@@H]1NC(=O)[C@H]([C@@H](C)c2c(C)cc(OC)cc2C)NC(=O)[C@H](N)C(C)(C)SSC[C@@H]2NC(=O)[C@H](CC(N)=O)NC(=O)[C@H](CCC(=O)NCCCC[C@@H](C(=O)NCC(N)=O)NC(=O)[C@@H]3CCCN3C2=O)NC1=O` has an IC50 [6] of 8 nM.
Compound `Cc1cc(O)cc(C)c1[C@H](C)[C@H](N)C(=O)N[C@H]1C(=O)NCC(=O)N[C@@H](Cc2ccccc2)C(=O)N[C@@H](C(=O)O)C(C)(C)SSC1(C)C` has an IC50 [7] of 210 nM and an IC50 [1] of 720 nM.
For `CC[C@H](C)[C@@H]1NC(=O)[C@@H]([C@@H](C)c2c(C)cc(OC)cc2C)NC(=O)[C@H](N)C(C)(C)SSC[C@@H]2NC(=O)[C@@H](CC(N)=O)NC(=O)[C@@H](CCC(=O)NCCCC[C@H](C(=O)NCC(N)=O)NC(=O)[C@H]3CCCN3C2=O)NC1=O`, the IC50 [6] was 36000 nM.
In the case of `CC[C@H](C)[C@@H]1NC(=O)[C@@H]([C@H](C)c2c(C)cc(OC)cc2C)NC(=O)[C@H](N)C(C)(C)SSC[C@@H]2NC(=O)[C@H](CC(N)=O)NC(=O)[C@H](CCC(=O)NCCCC[C@@H](C(=O)NCC(N)=O)NC(=O)[C@@H]3CCCN3C2=O)NC1=O`, the IC50 [6] is reported as 160 nM.
Compound `Cc1cc(O)cc(C)c1[C@@H](C)[C@H](N)C(=O)N[C@H](C(=O)NCC(=O)N[C@@H](Cc1ccccc1)C(=O)N[C@H](C(=O)O)C(C)(C)S)C(C)(C)S` (H-[X3][Pen]GF[Pen]-OH) has an Activity [10] of 0%.

Reference: ChEMBL document CHEMBL1145107, “Peptide science: exploring the use of chemical principles and interdisciplinary collaboration for understanding life processes” (J Med Chem, 2003)
